Here are results for 26 molecules from patent publication US6613903B2, “Modulators of protein tyrosine phosphatases (PTPases)” (Novo Nordisk A/S, priority 2000, dated 2003).

This assay concerns the target T1, truncated form of PTP1 B (corresponding to the first 321 amino acids) (Homo sapiens, UniProt P18031).
T1 construct: truncated form of PTP1 B (corresponding to the first 321 amino acids); made in house; host or cells: E. coli
T1 sequence (P18031 1-321): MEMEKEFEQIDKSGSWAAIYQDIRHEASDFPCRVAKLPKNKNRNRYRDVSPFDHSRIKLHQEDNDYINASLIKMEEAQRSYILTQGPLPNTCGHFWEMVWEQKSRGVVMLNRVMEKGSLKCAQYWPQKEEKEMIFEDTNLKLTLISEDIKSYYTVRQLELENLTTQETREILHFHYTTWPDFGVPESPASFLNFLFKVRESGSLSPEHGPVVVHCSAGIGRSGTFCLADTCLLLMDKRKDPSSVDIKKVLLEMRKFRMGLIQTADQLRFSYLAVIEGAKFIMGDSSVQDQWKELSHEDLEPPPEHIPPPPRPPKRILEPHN
The experiment in a line: Inhibition of PTP1B, p-nitrophenyl phosphate as substrate, enzyme kinetics. Format: biochemical. Conditions: truncated PTP1B expressed in E. coli; substrate p-nitrophenyl phosphate 0.16 to 10 mM; sodium acetate pH 5.5; 25° C. for 60 minutes; absorbance at 405 nm. Here is the method: The compounds are evaluated for biological activity with a truncated form of PTP1 B (corresponding to the first 321 amino acids), which was expressed in E. coli and purified to apparent homogeneity using published procedures well-known to those skilled in the art. The enzyme reactions are carried out using standard conditions essentially as described by Burke et al. (Biochemistry 35; 15989-15996 (1996)). The assay conditions are as follows. Appropriate concentrations of the compounds of the invention are added to the reaction mixtures containing different concentrations of the substrate, p-nitrophenyl phosphate (range: 0.16 to 10 mM—final assay concentration). The buffer used was 100 mM sodium acetate pH 5.5, 50 mM sodium chloride, 0.1% (w/v) bovine serum albumin and 5 mM dithiothreitol (total volume […]). The reaction was started by addition of the enzyme and carried out in microtiter plates at 25° C. for 60 minutes. The reactions are stopped by addition of NaOH. The enzyme activity was determined by measurement of the absorbance at 405 nm with appropriate corrections for absorbance at 405 nm of the compounds and p-nitrophenyl phosphate. The data are analyzed using nonlinear regression fit to classical Michaelis Menten enzyme kinetic models. Inhibition is expressed as Ki values in μM.
Usually Ki stands for a dissociation constant, usually derived from enzyme kinetics or from competition with a known ligand. A higher Ki goes with weaker binding. For `O=C(O)C(=O)Nc1sc2c(c1C(=O)O)CCN[C@@H]2CNC(=O)c1cc2cc(O)ccc2[nH]1` [Example 26, 7-(R)-(((5-Hydroxy-1H-indole-2-carbonyl)amino)methyl)-2-(oxalyl-amino)-4,5,6,7-tetrahydro-thieno[2,3-c]pyridine-3-carboxylic acid], the inhibition constant Ki was 2600 nM.

Take `O=C(NC[C@@H]1NCCc2c1sc(NC(=O)C(=O)O)c2C(=O)O)Nc1ccc(Oc2ccccc2)cc1` [Example 29, 2-(Oxalyl-amino)-7-(S)-(3-(4-phenoxy-phenyl)ureidomethyl)-4,5,6,7-tetrahydro-thieno[2,3-c]pyridine-3-carboxylic acid]: the affinity corresponds to a Ki of 31 nM.

`CCOc1cccc2cc(C(=O)NC[C@@H]3NCCc4c3sc(NC(=O)C(=O)O)c4C(=O)O)oc12` [Example 20, 7-(S)-(((7-Ethoxy-benzofuran-2-carbonyl)amino)methyl)-2-(oxalyl-amino)-4,5,6,7-tetrahydro-thieno[2,3-c]pyridine-3-carboxylic acid]: the Ki was 110 nM.

On to `O=C(O)C(=O)Nc1sc2c(c1C(=O)O)CCNC2CNC(=O)c1ccc(NC(=O)c2ccccc2)cc1` (centres unmarked) [Example 6, 7-((4-Benzoylamino-benzoylamino)methyl)-2-(oxalyl-amino)-4,5,6,7-tetrahydro-thieno[2,3-c]pyridine-3-carboxylic acid], for which the affinity, expressed as Ki, was 330 nM.

With `O=C(O)C(=O)Nc1sc2c(c1C(=O)O)CCN[C@H]2CNC(=O)c1cc2ccccc2[nH]1` [Example 37, 7-(S)-(((1H-Indole-2-carbonyl)amino)methyl)-2-(oxalyl-amino)-4,5,6,7-tetrahydro-thieno[2,3-c]pyridine-3-carboxylic acid], the Ki stood at 31 nM.

`O=C(O)C(=O)Nc1sc2c(c1C(=O)O)CCNC2CNC(=O)c1cccc2ccccc12` (centres unmarked) [Example 12, 7-(((Naphthalene-1-carbonyl)amino)methyl)-2-(oxalyl-amino)-4,5,6,7-tetrahydro-thieno[2,3-c]pyridine-3-carboxylic acid]: the affinity, expressed as Ki, was 120 nM.

`CC(=O)OCOC(=O)Oc1ccc2[nH]c(C(=O)NC[C@H]3c4sc(NC(=O)C(=O)O)c(C(=O)O)c4CCN3C(=O)OCOC(C)=O)cc2c1` [Example 35, 7-(S)-(((5-Acetoxymethoxycarbonyloxy-1H-indole-2-carbonyl)amino)methyl)-2-(oxalyl-amino)-4,7-dihydro-5H-thieno[2,3-c]pyridine-3,6-dicarboxylic acid 6-acetoxymethyl ester] showed a Ki of 32 nM.

Molecule `O=C(O)C(=O)Nc1sc2c(c1C(=O)O)CCNC2CNC(=O)c1cn(Cc2ccccc2)c2ccccc12` (centres unmarked) [Example 30, 7-(((1-Benzyl-1H-indole-3-carbonyl)amino)methyl)-2-(oxalyl-amino)-4,5,6,7-tetrahydro-thieno[2,3-c]pyridine-3-carboxylic acid] came in with a Ki of 70 nM.

`CC(=O)Nc1ccc(S(=O)(=O)NC[C@@H]2NCCc3c2sc(NC(=O)C(=O)O)c3C(=O)O)cc1` [Example 22, 7-(S)-((4-Acetylamino-benzenesulfonylamino)methyl)-2-(oxalyl-amino)-4,5,6,7-tetrahydro-thieno[2,3-c]pyridine-3-carboxylic acid] gave an inhibitory constant (Ki) of 91 nM.

`CCOC(=O)c1c(NC(=O)C(=O)O)sc2c1CCNC2CNC(=O)c1cc2cc(O)ccc2[nH]1` (centres unmarked) [Example 41, 7-(((5-Hydroxy-1H-indole-2-carbonyl)amino)methyl)-2-(oxalyl-amino)-4,7-dihydro-5H-thieno[2,3-c]pyridine-3-carboxylic acid ethyl ester] showed an inhibition constant (Ki) of 900 nM.

Molecule `CC(=O)NCC1NCCc2c1sc(NC(=O)C(=O)O)c2C(=O)O` (centres unmarked) [Example 31, 7-(Acetylamino-methyl)-2-(oxalyl-amino)-4,5,6,7-tetrahydro-thieno[2,3-c]pyridine-3-carboxylic acid] gave a Ki of 1100 nM.

For the molecule `O=C(O)C(=O)Nc1sc2c(c1C(=O)O)CCN[C@H]2CNCc1ccc(Oc2ccccc2)cc1` [Example 28, 2-(Oxalyl-amino)-7-(S)-((4-phenoxy-benzylamino)methyl)-4,5,6,7-tetrahydro-thieno[2,3-c]pyridine-3-carboxylic acid], the inhibition constant Ki amounted to 58 nM.

`CCOC(=O)c1c(NC(=O)C(=O)OCC(C)(C)C)sc2c1CCNC2CNC(=O)c1cc2cc(O)ccc2[nH]1` (centres unmarked) [Example 40, 2-((2,2-Dimethyl-propoxyoxalyl)amino)-7-(((5-hydroxy-1H-indole-2-carbonyl)-amino)methyl)-4,5,6,7-tetrahydro-thieno[2,3-c]pyridine-3-carboxylic acid ethyl ester] gave an inhibition constant Ki of 1300 nM.

In turn, `O=C(CCc1ccc(-c2ccccc2)cc1)NCC1NCCc2c1sc(NC(=O)C(=O)O)c2C(=O)O` (centres unmarked) [Example 9, 7-((3-Biphenyl-4-yl-propionylamino)methyl)-2-(oxalyl-amino)-4,5,6,7-tetrahydro-thieno[2,3-c]-pyridine-3-carboxylic acid] returned an inhibition constant Ki of 62 nM.

Turning to `O=C(O)C(=O)Nc1sc2c(c1C(=O)O)CCNC2CNC(=O)c1ccc(Cc2ccccc2)cc1` (centres unmarked) [Example 11, 7-((4-Benzyl-benzoylamino)methyl)-2-(oxalyl-amino)-4,5,6,7-tetrahydro-thieno[2,3-c]pyridine-3-carboxylic acid], the affinity, expressed as Ki, was 140 nM.

For the molecule `CC(C)(N)CCCC(=O)NCC1NCCc2c1sc(NC(=O)C(=O)O)c2C(=O)O` (centres unmarked) [Example 32, 7-((5-Amino-5-methyl-hexanoylamino)methyl)-2-(oxalyl-amino)-4,5,6,7-tetrahydro-thieno[2,3-c]pyridine-3-carboxylic acid], the Ki worked out at 78 nM.

`O=C(O)C(=O)Nc1sc2c(c1C(=O)O)CCNC2CNC(=O)c1ccccc1` (centres unmarked) [Example 1, 7-(Benzoylamino-methyl)-2-(oxalyl-amino)-4,5,6,7-tetrahydro-thieno[2,3-c]pyridine-3-carboxylic acid]: the Ki stood at 490 nM.

For `O=C(O)C(=O)Nc1sc2c(c1C(=O)O)CCN[C@H]2CNC(=O)c1cc2cc(O)ccc2[nH]1` [Example 25, 7-(S)-(((5-Hydroxy-1H-indole-2-carbonyl)amino)methyl)-2-(oxalyl-amino)-4,5,6,7-tetrahydro-thieno[2,3-c]pyridine-3-carboxylic acid], the affinity corresponds to a Ki of 3200 nM.

`O=C(O)C(=O)Nc1sc2c(c1C(=O)O)CCN[C@H]2CNC(=O)c1ccc2nc[nH]c2c1` [Example 24, 7-(S)-(((3H-Benzoimidazole-5-carbonyl)amino)methyl)-2-(oxalyl-amino)-4,5,6,7-tetrahydro-thieno[2,3-c]pyridine-3-carboxylic acid]: the Ki was 640 nM.

Molecule `O=C(O)C(=O)Nc1sc2c(c1C(=O)O)CCN[C@@H]2CNC(=O)c1cn(Cc2ccccc2)c2ccccc12` [Example 27, 7-(R)-(((1-Benzyl-1H-indole-3-carbonyl)amino)methyl)-2-(oxalyl-amino)-4,5,6,7-tetrahydro-thieno[2,3-c]pyridine-3-carboxylic acid] returned a Ki of 2100 nM.

As to `O=C(O)C(=O)Nc1sc2c(c1C(=O)O)CCN[C@H]2CNC(=O)c1ccc(-c2cccc(-c3ccccc3)c2)cc1` [Example 36], the Ki came to 42 nM.

`CCOC(=O)N1CCc2c(sc(NC(=O)C(=O)O)c2C(=O)O)C1CNC(=O)c1cc2cc(O)ccc2[nH]1` (centres unmarked) [Example 42, 7-(((5-Hydroxy-1H-indole-2-carbonyl)amino)methyl)-2-(oxalyl-amino)-4,7-dihydro-5H-thieno[2,3-c]pyridine-3,6-dicarboxylic acid 6-ethyl ester] displayed a Ki of 120 nM.

For the molecule `O=C(O)C(=O)Nc1sc2c(c1C(=O)O)CCN[C@H]2CNC(=O)c1cc2cc(F)ccc2[nH]1` [Example 33, 7-(S)-(((5-Fluoro-1H-indole-2-carbonyl)amino)methyl)-2-(oxalyl-amino)-4,5,6,7-tetrahydro-thieno[2,3-c]pyridine-3-carboxylic acid], the Ki is 18 nM.

As for `O=C(O)C(=O)Nc1sc2c(c1C(=O)O)CCNC2CNC(=O)c1c(O)ccc2ccccc12` (centres unmarked) [Example 14, 7-(((2-Hydroxy-naphthalene-1-carbonyl)amino)methyl)-2-(oxalyl-amino)-4,5,6,7-tetrahydro-thieno[2,3-c]pyridine-3-carboxylic acid], the Ki is 70 nM.

`O=C(CCc1ccc2ccccc2c1)NCC1NCCc2c1sc(NC(=O)C(=O)O)c2C(=O)O` (centres unmarked) [Example 13, 7-((3-Naphthalen-2-yl-propionylamino)methyl)-2-(oxalyl-amino)-4,5,6,7-tetrahydro-thieno[2,3-c]pyridine-3-carboxylic acid] gave a Ki of 70 nM.

For `CCOC(=O)C(=O)Nc1sc2c(c1C(=O)O)CCNC2CNC(=O)c1cc2cc(O)ccc2[nH]1` (centres unmarked) [Example 38, 2-(Ethoxyoxalyl-amino)-7-(((5-hydroxy-1H-indole-2-carbonyl)amino)methyl)-4,5,6,7-tetrahydro-thieno[2,3-c]pyridine-3-carboxylic acid], the Ki was 63 nM.
